The text below walks through data of US20170151240A1, “F10 Inhibits Growth of PC3 Xenografts and Enhances the Effects of Radiation Therapy” (WAKE FOREST UNIVERSITY, priority 2014, published 2017).

The target in data set [1] is T1, thymidylate synthase (TS) (Homo sapiens, UniProt P04818).
T1 construct: endogenous in cells; host or cells: PC3 (human prostate cancer cell line, ATCC)
Kind of data set: TS catalytic activity assay in treated PC3 cells. Type of data set: cell-based. To be noted: 5-FU 10^−6 M. An excerpt:
(§1) Other anti-angiogenic/anti-tumor agents that can be used in conjunction with the compounds, compositions, methods and combination therapy of the present invention include: SD-7784 (Pfizer, USA); cilengitide. […]

For data set [2] the following is noted: once daily, three times per week; higher doses lethal; cited from earlier work.
In data set [3] the test system is PC3 cells. Kind of data set: Clonogenic survival assay. The data set is classed as cell-based, human. The conditions noted are these: 72 h treatment; for decrease of colony formation relative to control: 10 μM.
From the text: as §1

T1 sequence (P04818 2-313 limits assumed): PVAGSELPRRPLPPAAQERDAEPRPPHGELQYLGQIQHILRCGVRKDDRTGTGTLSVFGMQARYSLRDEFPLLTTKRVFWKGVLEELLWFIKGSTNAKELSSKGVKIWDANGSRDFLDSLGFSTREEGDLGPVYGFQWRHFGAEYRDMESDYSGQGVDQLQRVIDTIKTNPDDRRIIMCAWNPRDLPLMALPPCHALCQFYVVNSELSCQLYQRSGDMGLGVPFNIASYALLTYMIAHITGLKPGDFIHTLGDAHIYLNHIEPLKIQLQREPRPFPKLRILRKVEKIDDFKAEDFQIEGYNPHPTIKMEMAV

As to `O=c1[nH]cc(F)c(=O)[nH]1` [5-FU, 5-fluorouracil], the “TS activity relative to control” value in data set [1] (8 and 16 h) was “increased”. Besides, the TS activity in data set [1] (48 h timepoint) was around 50 % control. In data set [2], the maximum tolerated dose is recorded as 45 mg/kg/dose. Also, in data set [3] (1 μM), the “PC3 cell colony formation” value is listed as “no effect”. Also, the “decrease of colony formation relative to control” value in data set [3] was below 50%; in data set [3] (listed as 5FU), “less than 50%”.
